Each structure is given as a SMILES string. Structures can show the parent of a compound that is named as a salt.

Experimental findings from US12390536B2, “Antibody-drug complex containing toll-like receptor 7/8 dual agonist compound” (ASTELLAS PHARMA INC., priority 2022, dated 2025) are described below.

One test addresses T1, human TLR7 (Homo sapiens, UniProt Q9NYK1).
T1 construct: expressed in transfected cells
T1 sequence (Q9NYK1 27-1049): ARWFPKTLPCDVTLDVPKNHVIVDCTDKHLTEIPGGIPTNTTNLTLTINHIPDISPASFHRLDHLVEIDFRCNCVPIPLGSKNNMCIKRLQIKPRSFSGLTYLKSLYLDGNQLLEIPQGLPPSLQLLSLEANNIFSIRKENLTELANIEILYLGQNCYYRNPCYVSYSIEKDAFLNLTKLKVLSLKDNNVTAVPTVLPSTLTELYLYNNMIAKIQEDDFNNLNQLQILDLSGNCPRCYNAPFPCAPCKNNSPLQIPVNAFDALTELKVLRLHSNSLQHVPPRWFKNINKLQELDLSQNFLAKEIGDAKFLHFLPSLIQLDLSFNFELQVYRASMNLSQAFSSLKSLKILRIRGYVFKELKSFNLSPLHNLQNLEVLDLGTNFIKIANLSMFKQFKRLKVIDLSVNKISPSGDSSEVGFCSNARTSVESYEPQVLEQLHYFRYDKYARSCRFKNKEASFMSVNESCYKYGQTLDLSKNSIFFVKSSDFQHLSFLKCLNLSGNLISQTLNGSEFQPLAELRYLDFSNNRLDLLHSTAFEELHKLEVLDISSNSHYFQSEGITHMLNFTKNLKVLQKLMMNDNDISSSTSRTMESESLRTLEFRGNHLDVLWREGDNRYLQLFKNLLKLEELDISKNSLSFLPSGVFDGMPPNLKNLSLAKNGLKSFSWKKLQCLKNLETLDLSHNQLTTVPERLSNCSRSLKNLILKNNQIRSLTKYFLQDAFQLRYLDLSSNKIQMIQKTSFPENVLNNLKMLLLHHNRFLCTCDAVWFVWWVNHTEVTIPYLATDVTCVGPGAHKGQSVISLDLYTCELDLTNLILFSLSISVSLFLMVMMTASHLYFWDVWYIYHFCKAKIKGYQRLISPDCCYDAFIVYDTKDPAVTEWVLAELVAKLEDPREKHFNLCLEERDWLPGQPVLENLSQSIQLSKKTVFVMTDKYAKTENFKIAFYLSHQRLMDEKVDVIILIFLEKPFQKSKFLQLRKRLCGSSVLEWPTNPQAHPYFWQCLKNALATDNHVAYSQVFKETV
Nature of the test: TLR7/8 reporter assay (HEK293, NFκB Nanoluc luciferase reporter), human TLR7. It counts as cell-based. The settings on record: 24-hour incubation; read-out: hTLR7 EC50. How it is done:
(§1) HEK293 cells (ATCC, #CRL-1573) were co-transfected with an expression vector having a nucleotide sequence encoding a TLR (human TLR7, human TLR8 or mouse TLR7) protein and a Nanoluc PEST luciferase reporter vector having an NFκB response element sequence (Genbank: JQ513377 bases 33 to 84) integrated therein. Thereafter, the transfected cells were cultured in DMEM (Sigma-Aldrich, #D5796-500 mL) containing Geneticin (Gibco, #10131-027) at a final concentration of 800 μg/mL, Hygromycin B (Invitrogen, #10687010) at a final concentration of 500 μg/mL, penicillin streptomycin (Gibco, #15070-063) at a final concentration of 1% and a 10% fetal bovine serum (FBS) (HyClone, #SH30084.03) to obtain a stable cell line for expression.
(§2) To reporter cells obtained above, DMEM containing 10% FBS was added to prepare a suspension of 1×10^5 cells/mL. The suspension was added to the wells of a 384-well white plate coated with collagen I (hereinafter referred to as “384-well plate”, Corning, #356703) at a rate of 20 μL per well. The cells were cultured in the conditions of 37° C. and 5% CO2, overnight (18 hours) and allowed to adhere to the plate. A test sample was dissolved in DMSO. The solution was diluted by adding DMEM medium containing 10% FBS to the solution such that the concentration becomes 5-fold as high as a final concentration. The diluted DMEM medium was added to the wells of the 384-well plate at a ratio of 5 μL/well. After the medium was further incubated in the conditions of 37° C. and 5% CO2 for 24 hours, the plate was taken out and allowed to stand still at room temperature for 10 minutes. Thereafter, chemiluminescence was measured using Nano-Glo Luciferase Assay System (Promega, #N1120) and EnVision 2104 (PerkinElmer) plate reader. A dose-response curve was prepared for each test sample and the EC50 value was obtained as a concentration at 50% of the maximum signal. In the table, hTLR7 represents human TLR7 and hTLR8 represents human TLR8; and mTLR7 represents mouse TLR7. A data item attached with an asterisk (*) indicates the result of 7 hour-incubation and other data items are the results of 24-hour incubation.

In a further test the target is T2, mouse TLR7 (Mus musculus, UniProt P58681).
T2 construct: expressed in transfected cells
T2 sequence (P58681 27-1050): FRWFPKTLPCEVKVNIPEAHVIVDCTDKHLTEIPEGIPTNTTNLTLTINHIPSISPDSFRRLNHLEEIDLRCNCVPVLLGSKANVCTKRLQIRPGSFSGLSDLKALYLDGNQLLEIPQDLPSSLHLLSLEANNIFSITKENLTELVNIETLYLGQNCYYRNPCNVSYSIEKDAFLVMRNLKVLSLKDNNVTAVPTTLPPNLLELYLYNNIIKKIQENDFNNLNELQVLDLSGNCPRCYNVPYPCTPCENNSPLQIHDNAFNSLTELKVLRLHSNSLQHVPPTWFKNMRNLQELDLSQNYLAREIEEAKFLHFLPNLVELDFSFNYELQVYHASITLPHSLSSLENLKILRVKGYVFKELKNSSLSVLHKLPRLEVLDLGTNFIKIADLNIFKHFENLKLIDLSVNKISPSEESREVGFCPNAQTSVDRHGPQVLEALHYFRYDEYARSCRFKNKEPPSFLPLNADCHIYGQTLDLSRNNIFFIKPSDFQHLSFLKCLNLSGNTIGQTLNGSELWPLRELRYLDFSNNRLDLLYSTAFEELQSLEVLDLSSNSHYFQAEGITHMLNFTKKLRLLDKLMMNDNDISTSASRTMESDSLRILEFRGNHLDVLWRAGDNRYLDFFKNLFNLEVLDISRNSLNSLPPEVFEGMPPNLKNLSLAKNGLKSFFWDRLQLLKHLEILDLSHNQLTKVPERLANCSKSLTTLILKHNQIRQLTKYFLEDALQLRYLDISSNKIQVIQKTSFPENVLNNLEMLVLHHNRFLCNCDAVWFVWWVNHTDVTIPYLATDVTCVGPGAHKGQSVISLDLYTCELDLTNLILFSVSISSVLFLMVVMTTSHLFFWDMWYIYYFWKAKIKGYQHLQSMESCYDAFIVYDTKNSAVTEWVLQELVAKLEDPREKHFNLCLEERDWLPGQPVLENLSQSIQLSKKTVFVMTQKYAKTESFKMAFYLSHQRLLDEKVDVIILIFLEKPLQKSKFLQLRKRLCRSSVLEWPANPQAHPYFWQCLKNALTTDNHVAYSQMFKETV
The test is described as follows: TLR7/8 reporter assay (HEK293, NFκB Nanoluc luciferase reporter), mouse TLR7. It counts as cell-based. The settings on record: 24-hour incubation; read-out: mTLR7 EC50. How it is done: as §1, §2

On to `CCCCCNc1nc(N)nc2ccn(Cc3ccc(CN4CCNC[C@H]4CF)cc3OC)c12` [Ex1, 5-[(4-{[(2S)-2-(fluoromethyl)piperazin-1-yl]methyl}-2-methoxyphenyl)methyl]-N^4-pentyl-5H-pyrrolo[3,2-d]pyrimidine-2,4-diamine], for which the EC50 was found to be 1.12 nM at human TLR7 and 2.92 nM on mouse TLR7.

As for `CCCCCNc1nc(N)nc2ccn(Cc3ccc(CN4CCN[C@@H](CF)C4)cc3OC)c12` [Ex2, 5-[(4-{[(3R)-3-(fluoromethyl)piperazin-1-yl]methyl}-2-methoxyphenyl)methyl]-N^4-pentyl-5H-pyrrolo[3,2-d]pyrimidine-2,4-diamine (trifluoroacetic acid) salt], the EC50 at human TLR7 is 1.77 nM; on mouse TLR7, 5.36 nM.

As to `CCCCCNc1nc(N)nc2ccn(Cc3ccc(CNC4CC4)cc3OC)c12` [Ex3, 5-({4-[(cyclopropylamino)methyl]-2-methoxyphenyl}methyl)-N^4-pentyl-5H-pyrrolo[3,2-d]pyrimidine-2,4-diamine], the EC50 was 3.47 nM on human TLR7 and 6.17 nM at mouse TLR7.

On to `CCCCCSc1nc(N)nc2ccn(Cc3ccc(CN4CCNCC4)cc3OC)c12` [Ex4, 5-({2-methoxy-4-[(piperazin-1-yl)methyl]phenyl}methyl)-4-(pentylsulfanyl)-5H-pyrrolo[3,2-d]pyrimidin-2-amine], for which the EC50 stood at 54.2 nM at human TLR7 and 39.9 nM on mouse TLR7.

`CCCCCSc1nc(N)nc2ccn(Cc3ccc(CN4CCC[C@H]4CO)cc3OC)c12` [Ex5, {(2S)-1-[(4-{[2-amino-4-(pentylsulfanyl)-5H-pyrrolo[3,2-d]pyrimidin-5-yl]methyl}-3-methoxyphenyl)methyl]pyrrolidin-2-yl}methanol]: the values for the EC50 at human TLR7 and at mouse TLR7 were 45 nM and 26.7 nM, respectively.

On to `CCCCCNc1nc(N)nc2c(Cl)cn(Cc3ccc(CN4CCC[C@H]4CO)cc3OC)c12` [Ex6, {(2S)-1-[(4-{[2-amino-7-chloro-4-(pentylamino)-5H-pyrrolo[3,2-d]pyrimidin-5-yl]methyl}-3-methoxyphenyl)methyl]pyrrolidin-2-yl}methanol], for which the EC50 at human TLR7 came out at 3.22 nM; at mouse TLR7, 10.1 nM.

As for `CCCCCNc1nc(N)nc2c(Br)cn(Cc3ccc(CN4CCC[C@H]4CO)cc3OC)c12` [Ex7, {(2S)-1-[(4-{[2-amino-7-bromo-4-(pentylamino)-5H-pyrrolo[3,2-d]pyrimidin-5-yl]methyl}-3-methoxyphenyl)methyl]pyrrolidin-2-yl}methanol], the EC50 on human TLR7 came out at 8.1 nM; on mouse TLR7, 21.5 nM.

As to `CCCCCNc1nc(N)nc2cc(C)n(Cc3ccc(CN4CCNCC4)cc3OC)c12` [Ex8, 5-({2-methoxy-4-[(piperazin-1-yl)methyl]phenyl}methyl)-6-methyl-N^4-pentyl-5H-pyrrolo[3,2-d]pyrimidine-2,4-diamine hydrochloride], the values for the EC50 on human TLR7 and on mouse TLR7 were 11.3 nM and 23.5 nM, respectively.

For `CCCCCNc1nc(N)nc2ccn(Cc3ccc(CC4CCNCC4)cc3OC)c12` [Ex9, 5-({2-methoxy-4-[(piperidin-4-yl)methyl]phenyl}methyl)-N^4-pentyl-5H-pyrrolo[3,2-d]pyrimidine-2,4-diamine], the EC50 came to 2.78 nM at human TLR7 and 4.81 nM at mouse TLR7.

Take `CCCCCNc1nc(N)nc2ccn(Cc3ccc(CN4CCNC[C@@H]4CF)cc3OC)c12` [Ex10, 5-[(4-{[(2R)-2-(fluoromethyl)piperazin-1-yl]methyl}-2-methoxyphenyl)methyl]-N^4-pentyl-5H-pyrrolo[3,2-d]pyrimidine-2,4-diamine]: the results for the EC50 on human TLR7 and at mouse TLR7 were 2.74 nM and 8.75 nM, respectively.

On to `COc1cc(CN2CCNC[C@H]2CF)ccc1Cn1ccc2nc(N)nc(SCc3cc(C)on3)c21` [Ex11], for which the EC50 came out at 17.8 nM on human TLR7 and 9.2 nM at mouse TLR7.

Take `CCCCCNc1nc(N)nc2ccn(Cc3ccc(CNCC4CCC4)cc3OC)c12` [Ex12]: the EC50 on human TLR7 is 1.87 nM; on mouse TLR7 it was 3.58 nM.

On to `CCCCCSc1nc(N)nc2ccn(Cc3ccc(CN4CC[C@H]4CO)cc3OC)c12` [Ex13], for which the results for the EC50 at human TLR7 and at mouse TLR7 were 23.3 nM and 17.4 nM, respectively.

On to `CCCCCSc1nc(N)nc2ccn(Cc3ccc(CN4CCC(O)CC4)cc3OC)c12` [Ex14], for which the EC50 on human TLR7 was found to be 28.8 nM; at mouse TLR7, 27.3 nM.

Turning to `CCCCCSc1nc(N)nc2ccn(Cc3ccc(CN4CC[C@@H](CN)C4)cc3OC)c12` [Ex15], the EC50 was 138 nM on human TLR7 and 111 nM on mouse TLR7.

Take `CCCCCNc1nc(N)nc2c(Cl)cn(Cc3ccc(CN4CC[C@H]4CO)cc3OC)c12` [Ex17]: the EC50 at human TLR7 came to 2.52 nM; on mouse TLR7, 7.11 nM.

Consider `CCCCCNc1nc(N)nc2c(Cl)cn(Cc3ccc(CN4CCC[C@H]4C(C)(C)O)cc3OC)c12` [Ex18], for which the EC50 was 6.57 nM on human TLR7 and 13.9 nM at mouse TLR7.
